# Results as given in article PMC4639919 (Neurochemical research, 2015).
# Target: α6β2* nicotinic acetylcholine receptor (α6 subunit) (Rattus norvegicus, UniProt P12390+P43143)
# Sequence (P43143 31-493 limits assumed): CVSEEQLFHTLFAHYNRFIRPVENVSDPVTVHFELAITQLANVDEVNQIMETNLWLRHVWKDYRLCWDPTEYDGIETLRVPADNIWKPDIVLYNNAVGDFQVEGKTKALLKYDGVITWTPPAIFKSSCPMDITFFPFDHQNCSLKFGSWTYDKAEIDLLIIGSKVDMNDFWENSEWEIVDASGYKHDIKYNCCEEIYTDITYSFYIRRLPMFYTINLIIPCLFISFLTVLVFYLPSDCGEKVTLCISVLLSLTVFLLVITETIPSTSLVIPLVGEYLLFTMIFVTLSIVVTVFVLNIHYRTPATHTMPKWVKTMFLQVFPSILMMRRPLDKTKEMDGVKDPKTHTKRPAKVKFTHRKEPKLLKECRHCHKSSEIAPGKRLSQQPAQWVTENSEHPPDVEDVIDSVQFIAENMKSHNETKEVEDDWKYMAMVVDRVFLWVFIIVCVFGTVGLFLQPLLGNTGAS
# Sequence (P12390 25-500 limits assumed): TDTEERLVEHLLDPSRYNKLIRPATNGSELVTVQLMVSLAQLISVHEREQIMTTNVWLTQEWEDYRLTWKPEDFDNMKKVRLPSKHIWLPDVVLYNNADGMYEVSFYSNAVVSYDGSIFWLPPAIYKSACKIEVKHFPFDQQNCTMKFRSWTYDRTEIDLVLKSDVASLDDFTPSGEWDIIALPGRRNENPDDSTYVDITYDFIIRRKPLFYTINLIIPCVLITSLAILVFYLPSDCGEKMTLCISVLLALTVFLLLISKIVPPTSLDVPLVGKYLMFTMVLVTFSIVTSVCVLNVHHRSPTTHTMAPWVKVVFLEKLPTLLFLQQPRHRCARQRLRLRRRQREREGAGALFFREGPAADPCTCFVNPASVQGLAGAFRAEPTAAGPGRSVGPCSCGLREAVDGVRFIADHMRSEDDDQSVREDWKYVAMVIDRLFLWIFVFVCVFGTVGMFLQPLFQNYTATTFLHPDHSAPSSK
structure (smiles),measurement,value
"CC1=CCCN(CCCCCCCCCCN2CCC=C(C)C2)C1 [r-bPiDI, 1,10-bis(3-methyl-5,6-dihydropyridin-1(2H)-yl)decane]",IC50,37.5 ± 18.7 nM
